Source: publication PMC7281280, “Is the Way to Fight Cancer Paved with Gold? Metal-Based Carbene Complexes with Multiple and Fascinating Biological Features” (Pharmaceuticals, 2020)
Where two headings read alike, the source gives them in different places.

How the values were obtained:
[1] = system: HeLa human epithelial cervix carcinoma cells; experiment: MTT cell viability, HeLa; type: cell-based; settings: 72 h, mean ± SD
Method: (§1) The six cell lines used in this work (MCF-7, MDA-MB-231, HeLa, […], MCF-10A and Hek-293) were purchased from American Type Culture Collection (ATCC, Manassas, VA, USA). MCF-7 human breast cancer cells, estrogen receptor (ER)-positive, were maintained in Dulbecco’s modified Eagle’s medium/nutrient mixture Ham F-12 (DMEM/F12), supplemented with 10% fetal bovine serum (FBS) and 100 U mL^−1 penicillin/streptomycin. MCF-10A human mammary epithelial cells, were cultured in DMEM/F12 medium, supplemented with 5% horse serum (HS, Thermo Fisher Scientific, Milan, Italy), 100 U mL^−1 penicillin/streptomycin, […] hydrocortisone, 20 ng mL^−1 human epidermal growth factor (hEGF), […] insulin, and […] cholera enterotoxin (Sigma–Aldrich, Milan, Italy). MDA-MB-231 human breast cancer cells, known as triple-negative cells (i.e., not overexpressing human epidermal growth factor receptor 2 (HER2), estrogen and progesterone receptors), were cultured in DMEM/F12 supplemented with 5% FBS, 1% L-glutamine and 100 U mL^−1 penicillin/streptomycin. HeLa human epithelial cervix carcinoma cells, estrogen receptor (ER)-negative, and […] human endometrial adenocarcinoma cells, estrogen receptor (ER)-positive, were maintained in minimum essential Eagle’s Medium (MEM), supplemented with 10% FBS, 1% L-glutamine, 100 U mL^−1 penicillin/streptomycin and 1% Non-Essential Amino Acids (NEAA). Hek-293 human embryonic kidney epithelial cells were cultured in DMEM high glucose (4.5 g L^−1), supplemented with 10% FBS, 1% L-glutamine and 100 U mL^–1 penicillin/streptomycin. Cells were maintained at 37 °C in a humidified atmosphere of 95% air and 5% CO2 and periodically screened for contamination.
(§2) Cell viability has been determined using the 3-(4,5-dimethylthiazol-2-y1)-2,5-diphenyltetrazolium bromide (MTT, Sigma–Aldrich, Milan, Italy) assay. Cells have been seeded on 48-well plates and grown in complete medium. Before being treated, cells have been starved in serum free medium for 24 h for allowing cell cycle synchronization. […] Data are representative of three independent experiments; standard deviations (SD) have been shown.

[2] = system: MCF-10A human mammary epithelial cells; experiment: MTT cell viability, normal MCF-10A; type: cell-based; settings: 72 h, mean ± SD
Method: as §1, §2

[3] = system: ISHIKAWA human endometrial adenocarcinoma cells; experiment: MTT cell viability, […]; type: cell-based; settings: 72 h, mean ± SD
Method: as §1, §2

[4] = system: Hek-293 human embryonic kidney epithelial cells; experiment: MTT cell viability, normal Hek-293; type: cell-based; settings: for IC50: normal cells, MTT, 72 h, mean ± SD, read-out: IC50 Hek-293
Method: as §1, §2

[5] = system: MDA-MB-231 human breast cancer cells; experiment: MTT cell viability, MDA-MB-231; type: cell-based; settings: mean ± SD
Method: as §1, §2

[6] = system: MCF-7 human breast cancer cells; experiment: MTT cell viability, MCF-7; type: cell-based; settings: mean ± SD
Method: as §1, §2

[7] = system: MDA-MB-231 cells; experiment: Detection of intracellular ROS (DCF-DA); type: cell-based, human; settings: fluorescence microscopy
Method: We used 2,7-dichlorofluorescin diacetate (DCF-DA) as a fluorometric probe for ROS detection and their production was examined under an inverted fluorescence microscope, as already reported.
Cells were grown on glass coverslips until the treatment with compound or menadione (used as positive control) (Sigma–Aldrich, Milan, Italy). Then, cells were incubated with 10 μM 2′-7′-Dichlorofluorescein diacetate (Sigma–Aldrich, Milan, Italy) for 40 min at 37 °C in a 5% CO2 incubator, as previously described. Then, DAPI (0.2 μg mL^−1) counterstain was performed for 10 min at room temperature, in the dark. Cells were then washed three times with cold PBS, adding one drop of mounting solution, then they were observed and imaged under a fluorescence microscope (Leica DM6000; 20× magnification) with excitation/emission wavelength maxima of 490 nm/515 nm (DCF) or 350 nm/460 nm (DAPI). Images are representative of three independent experiments.
Images were acquired at 20× magnification. […] Fields are representative of three separate experiments.

[8] = system: tubulin; experiment: In vitro tubulin-polymerization assay (turbidity at 350 nm); type: biochemical; settings: 10 µM; for final optical density value at 350 nm (OD350): vehicle (DMSO) about 0.43
Method: Tubulin-polymerization inihibition was measured using in vitro Tubulin-Polymerization Assay Kit purchased fromEMD Millipore Corporation. Polymerization reactions occur in 70 µL final volumes, of which 60 µL is the 60 µM tubulin in 1 × PB-GTP and 10 µL is the test substance dissolved in 1 × PB-GTP. […] These reactives were combined in 96-well plate on ice. After the plate was transferred into the spectrophotometer pre-warmed at 37 °C and the turbidity variation was measured every 30 s at 350 nm for 90 min. The plate was shaked for 10 s before each measurement. Turbidity (absorbance) readings were used to calculate the extent of polymerization [% inhibition = (1−A350 sample/A350 control) × 100].
Figure 4 Tubulin-polymerization assay. […] Two positive control molecules, Paclitaxel and Vinblastine, were used as tubulin-stabilizing and tubulin-destabilizing agents, respectively. DMSO was used as a negative control. Assembly of tubulin into microtubules was determined by measuring the turbidity at 350 nm for 3600 s at 37 °C. All the compounds were used at a concentration of 10 μM.

[9] = system: MDA-MB-231 cells; experiment: Immunofluorescence of microtubules, MDA-MB-231; type: cell-based, human; settings: at IC50 value, 24 h
Method: (§3) Cells were grown on glass coverslips in full media, then serum-deprived for 24 h and exposed to compounds for 24 h (concentration equal to its IC50 value). Then, the cells after PBS-washed, were fixed with cold methanol (15 min/−20 °C) and incubated with primary antibody, diluted in blocking solution (4 °C/overnight), as previously described. The mouse anti-β-Actin (69879) and the rabbit anti-β tubulin (9104) were purchased from Santa Cruz Biotechnology and used at 1:100 dilution. Coverslips were then washed 3 times with PBS, then fixed cells were incubated with the secondary antibody Alexa Fluor® 568 conjugate goat-anti-mouse and Alexa Fluor® 488 conjugate goat-anti-rabbit (1:500, Thermo Fisher Scientific, Waltham, MA, USA). Nuclei were stained using DAPI (Sigma–Aldrich, Mila, Italy) for 10 min at a concentration of 0.2 μg/mL then washed 3 times with PBS. Fluorescence was detected using a fluorescence microscope (Leica DM 6000). LAS-X software was used to acquire and process all images.
Figure 5 Immunofluorescence studies. […] Panels A: DAPI, excitation/emission wavelength 350 nm/460 nm; panels B: β-tubulin (Alexa Fluor® 488) excitation/emission wavelength 490 nm/515 nm; panels C show a merge. Representative fields are shown.

[10] = system: HeLa cells; experiment: Immunofluorescence of microtubules, HeLa; type: cell-based, human; settings: at IC50 value, 24 h
Method: as §3
Figure 6 Immunofluorescence studies. HeLa cells were treated with AuL4, Vinblastine, Paclitaxel (used at their IC50 values) or with a vehicle (CTRL) for 24 h. After treatment, the cells were methanol fixed, incubated with primary and secondary antibodies, stained with DAPI and observed and imaged under the inverted fluorescence microscope at 20× magnification (see Materials and methods). […] Panels A: DAPI, excitation/emission wavelength 350 nm/460 nm; panels B: β-tubulin (Alexa Fluor® 488) excitation/emission wavelength 490 nm/515 nm; panels C show a merge. Representative fields are shown.

SMILES | IC50 [1] [µM] | IC50 [2] [µM] | IC50 [3] [µM] | IC50 [4] [µM] | IC50 ([5]; 72 h) [µM] | IC50 ([6]; 72 h) [µM] | other results
OC(Cn1cc[n+](CC(O)c2ccccc2)[c]1[Ag-][c]1n(CC(O)c2ccccc2)cc[n+]1CC(O)c1ccccc1)c1ccccc1.[I][Ag-][I] (mixture of isomers) [AgL6] | 47.7 ± 0.4 | 143.4 ± 0.8 | 26.7 ± 0.5 | > 200 | 57.9 ± 0.5 | 29.7 ± 0.3 | –
C[n+]1ccn(CC(O)c2ccccc2)[c]1[Ag-][c]1n(CC(O)c2ccccc2)cc[n+]1C.[I][Ag-][I] (racemic) [AgL3] | – | – | – | – | – | – | IC50 MDA-MB-231 ([5]; 72 h): completely inactive
C[n+]1c(Cl)c(Cl)n(CC(O)c2ccccc2)[c]1[Ag-][c]1n(CC(O)c2ccccc2)c(Cl)c(Cl)[n+]1C.[I][Ag-][I] (racemic) [AgL7, bis-[4,5-dichloro-(N-methyl-N’(2-hydroxy-2-phenyl)ethyl-imidazole-2-ylidene]silver(I)]^+[di-iodide-silver]^−] | 9.76 ± 0.6 | > 200 | 6.55 ± 0.9 | > 200 | 3.22 ± 1.2 | 10.5 ± 0.8 | –
C[n+]1ccn(CC(O)c2ccccc2)[c]1[Au-][c]1n(CC(O)c2ccccc2)cc[n+]1C.[Cl][Au-][Cl] (racemic) [AuL3] | – | – | – | – | 3.43 ± 1 | – | –
OCc1ccc(-n2cc[n+](CC(O)c3ccccc3)[c]2[Au-][Br])cc1 (racemic) [AuL5] | 44.5 ± 0.9 | > 200 | 54.9 ± 1 | > 200 | 31.7 ± 0.8 | 18.2 ± 0.5 | –
OCc1ccc(-n2ccn(CC(O)c3ccccc3)[c]2=[Ag][Br])cc1 (stereo not drawn) [AgL5] | > 200 | > 200 | > 200 | > 200 | > 200 | > 200 | –
OC(Cn1ccn(CC(O)c2ccccc2)[c]1=[AuH]=[c]1n(CC(O)c2ccccc2)ccn1CC(O)c1ccccc1)c1ccccc1.[Cl][AuH][Cl] (stereo not drawn) [AuL6] | 98.6 ± 1.2 | 158.8 ± 1 | 12.6 ± 0.3 | > 200 | 53.7 ± 0.7 | 9.38 ± 0.2 | –
N.N.[Cl][Pt][Cl] [Cis-platin, Cisplatin, reference compound] | 15.7 ± 1.1 | 81.3 ± 1.2 | 15.1 ± 0.8 | 16.8 ± 0.4 | 28.7 ± 1 | 35.8 ± 1.3 | –
OCc1ccc(-[n+]2ccn(CC(O)c3ccccc3)c2)cc1 (stereo not drawn) [L5, N-[4-(hydroxymethyl)phenyl]-N’-[(2-hydroxy-2-phenyl)ethyl]-imidazolium bromide] | – | – | – | – | – | – | IC50 ([1]; Homo sapiens, HeLa): > 200 µM; IC50 ([2]; Homo sapiens, MCF-10A): > 200 µM; IC50 ([3]; Homo sapiens, Ishikawa): > 200 µM; IC50 ([4]; Homo sapiens, HEK293): > 200 µM; IC50 ([5]; Homo sapiens, MDA-MB-231, 72 h): > 200 µM; IC50 ([6]; Homo sapiens, MCF7, 72 h): > 200 µM
OC(Cn1cc[n+](CC(O)c2ccccc2)c1)c1ccccc1 (stereo not drawn) [L6] | – | – | – | – | – | – | IC50 ([1]; Homo sapiens, HeLa): > 200 µM; IC50 ([2]; Homo sapiens, MCF-10A): > 200 µM; IC50 ([3]; Homo sapiens, Ishikawa): > 200 µM; IC50 ([4]; Homo sapiens, HEK293): > 200 µM; IC50 ([5]; Homo sapiens, MDA-MB-231, 72 h): > 200 µM; IC50 ([6]; Homo sapiens, MCF7, 72 h): > 200 µM
C[n+]1cn(CC(O)c2ccccc2)c(Cl)c1Cl (stereo not drawn) [L7] | > 200 | > 200 | > 200 | > 200 | > 200 | > 200 | –
O=c1c(O)c(-c2ccc(O)c(O)c2)oc2cc(O)cc(O)c12 [Quercetin, reference compound] | – | – | – | – | – | – | increase of the Hek-293 cells viability vs AuL7 alone ([4]; pre-treatment for 4 h with Quercetin (at 50 μM), then AuL7): about 1.5 fold
CC1=CC(=O)c2ccccc2C1=O [menadione, reference compound] | – | – | – | – | – | – | ROS production (DCF green fluorescence) [7]: increased ROS production
CC(=O)O[C@H]1C(=O)[C@@]2(C)[C@H]([C@H](OC(=O)c3ccccc3)[C@]3(O)C[C@H](OC(=O)[C@H](O)[C@@H](NC(=O)c4ccccc4)c4ccccc4)C(C)=C1C3(C)C)[C@]1(OC(C)=O)CO[C@@H]1C[C@@H]2O [paclitaxel] | – | – | – | – | – | – | final optical density value at 350 nm (OD350) ([8]; 37 °C): about 0.51; effect on microtubule network, MDA-MB-231 [9]: microtubules non-reversible polymerization; effect on microtubule network, HeLa [10]: microtubules non-reversible polymerization
CC[C@]1(O)C[C@@H]2CN(CCc3c([nH]c4ccccc34)[C@@](C(=O)OC)(c3cc4c(cc3OC)N(C)[C@H]3[C@@](O)(C(=O)OC)[C@H](OC(C)=O)[C@]5(CC)C=CCN6CC[C@]43[C@@H]65)C2)C1 [vinblastine, reference compound] | – | – | – | – | – | – | effect on tubulin-polymerization reaction [8]: tubulin-polymerization inhibition; time to reach the steady state of polymerization curve ([8]; 37 °C): about 40 min; final optical density value at 350 nm (OD350) ([8]; 37 °C): less than the half of the vehicle reaction; effect on microtubule network, MDA-MB-231 [9]: microtubules disorganization; effect on microtubule network, HeLa [10]: microtubules disorganization
